{"source": "patent US20070191336A1", "about": "(priority 2003, published 2007)", "key": {"[1]": {"tested_on": "LPS-induced TNF-alpha release from human peripheral blood mononuclear leukocytes", "assay": "Human peripheral blood mononuclear leukocyte cell assay (LPS-induced TNF-alpha release, ELISA)", "format": "cell-based", "conditions": "25 ng/mL LPS, 16 hours incubation, read-out: IC50 for inhibition of TNF-alpha release", "protocol": "The quantity of LPS-induced tumor necrosis factor-alpha (TNF-alpha) cytokine release is measured by a commercially available Enzyme-Linked Immunosorbent Assay (ELISA) kit. Test compounds are evaluated for their ability to inhibit TNF-alpha release. […] Test compounds evaluated are illustrated in Table 4."}, "[2]": {"target": "p38 MAP kinase (unphosphorylated p38-alpha kinase) (Homo sapiens, UniProt Q16539)", "sequence (Q16539 whole entry)": "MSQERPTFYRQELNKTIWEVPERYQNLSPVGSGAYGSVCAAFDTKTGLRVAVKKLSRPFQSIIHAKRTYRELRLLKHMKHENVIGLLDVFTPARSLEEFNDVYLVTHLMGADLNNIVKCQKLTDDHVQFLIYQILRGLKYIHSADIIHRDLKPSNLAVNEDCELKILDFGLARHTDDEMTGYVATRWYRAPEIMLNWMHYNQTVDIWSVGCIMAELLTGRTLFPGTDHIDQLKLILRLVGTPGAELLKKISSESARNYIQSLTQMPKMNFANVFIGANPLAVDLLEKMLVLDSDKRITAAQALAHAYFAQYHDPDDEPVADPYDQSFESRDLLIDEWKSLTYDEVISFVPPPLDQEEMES", "assay": "P38 MAP kinase binding assay (fluorescence competition with SKF 86002 probe)", "conditions": "for Time-dependent: time-dependent if IC50 values decrease with the reaction time (more than two-fold in four hours)", "protocol": "The reaction was initiated by addition of the enzyme. […] By comparison of rfu (relative fluorescence unit) values with that of a control (in the absence of an inhibitor), the percentage of inhibition at each concentration of the inhibitor was calculated. IC50 value for the inhibitor was calculated from the % inhibition values obtained at a range of concentrations of the inhibitor using Prism. When time-dependent inhibition was assessed, the plate was read at multiple reaction times such as 0.5, 1, 2, 3, 4 and 6 hours. The IC50 values were calculated at the each time point. An inhibition was assigned as time-dependent if the IC50 values decrease with the reaction time (more than two-fold in four hours)."}, "[3]": {"target": "T1, phospho p-38 alpha kinase (Homo sapiens, UniProt Q16539)", "T1 construct": "purchased Panvera", "T1 sequence (Q16539 whole entry)": "as above", "assay": "P-38 alpha kinase assay (spectrophotometric, pyruvate kinase/lactate dehydrogenase coupled)", "format": "biochemical", "conditions": "for IC50: Table 2, rates from […] to 2 h time frame; for % Inhibition @ concentration: Table 3"}}, "note": "Like-named read-outs stand apart in the source and are kept apart here.", "data": [{"smiles": "CC(C)(C)c1cc(NC(=O)Nc2cccc3ccccc23)n(-c2cccc(CN3C(=O)CNS3(=O)=O)c2)n1", "note": "[Example 3, 1-(3-tert-butyl-1-{[3-(1,1,3-trioxo-[1,2,5]thiadiazolidin-2-yl)methyl]phenyl}-1H-pyrazol-5-yl)-3-(naphthalen-1-yl)urea]", "values": [{"measurement": "IC50", "setting": "[1]", "value": 6100, "unit": "nM"}]}, {"smiles": "CC1(C(=O)O)CC2(C)CC(C)(C1)C(=O)N(Cc1cccc(-n3nc(C(C)(C)C)cc3NC(=O)Nc3cccc4ccccc34)c1)C2=O", "note": "(centres unmarked) [Example 11]", "values": [{"measurement": "IC50", "setting": "[2]; read-out: IC50", "value": 2150, "unit": "nM"}, {"measurement": "Time-dependent", "setting": "[2]", "value": "No"}, {"measurement": "IC50", "setting": "[3]", "value": 953, "unit": "nM"}]}, {"smiles": "CC1(C(=O)O)CC2(C)CC(C)(C1)C(=O)N(Cc1cccc(-n3nc(C(C)(C)C)cc3NC(=O)Nc3ccc(Cl)cc3)c1)C2=O", "note": "(centres unmarked) [Example 12]", "values": [{"measurement": "IC50", "setting": "[2]", "value": "~10000", "unit": "nM"}, {"measurement": "Time-dependent", "setting": "[2]", "value": "No"}, {"measurement": "inhibition at 10 µM", "setting": "[3]; read-out: % inhibition @ concentration, Table 2, at 10 uM", "value": 70, "unit": "%"}]}, {"smiles": "CC1(C)C(=O)NN(Cc2cccc(-n3nc(C(C)(C)C)cc3NC(=O)Nc3cccc4ccccc34)c2)C1=O", "note": "[Example 13, 1-(3-tert-butyl-1-{3-[(4,4-dimethyl-3,5-dioxopyrazolidin-1-yl)methyl]phenyl}-1H-pyrazol-5-yl)-3-(naphthalen-1-yl)urea]", "values": [{"measurement": "IC50", "setting": "[1]", "value": 6320, "unit": "nM"}]}, {"smiles": "CC(C)(C)c1cc(NC(=O)Nc2cccc3ccccc23)n(-c2cccc(CC(=O)N3CCOCC3)c2)n1", "note": "[Example 21, 1-{3-tert-butyl-1-[3-(2-morpholino-2-oxoethyl)phenyl]-1H-pyrazol-5-yl}-3-(naphthalene-1-yl)urea]", "values": [{"measurement": "IC50", "setting": "[2]", "value": 48, "unit": "nM"}, {"measurement": "Time-dependent", "setting": "[2]", "value": "Yes"}, {"measurement": "IC50", "setting": "[3]", "value": 171, "unit": "nM"}, {"measurement": "IC50", "setting": "[1]", "value": 3400, "unit": "nM"}]}, {"smiles": "CC(C)(C)c1cc(NC(=O)Nc2cccc3ccccc23)n(-c2cccc(CCC(=O)O)c2)n1", "note": "[Example 29]", "values": [{"measurement": "IC50", "setting": "[1]", "value": 2680, "unit": "nM"}]}, {"smiles": "CC(C)(C)c1cc(NC(=O)Nc2cccc3ccccc23)n(-c2ccc(CCC(=O)O)cc2)n1", "note": "[Example 31, 3-{4-[3-tert-butyl-5-(3-(naphthalene-1-yl)ureido]-1H-pyrazol-1-yl}phenyl)propanonic acid]", "values": [{"measurement": "IC50", "setting": "[1]", "value": 4520, "unit": "nM"}]}, {"smiles": "CC(C)(C)c1cc(NC(=O)Nc2cccc3ccccc23)n(-c2ccc(CN)cc2)n1", "note": "[Example 45, 1-{3-tert-butyl-1-[4-(aminomethyl)phenyl]-1H-pyrazol-5-yl}-3-(naphthalen-1-yl)urea]", "values": [{"measurement": "IC50", "setting": "[2]; read-out: IC50", "value": 1860, "unit": "nM"}, {"measurement": "Time-dependent", "setting": "[2]", "value": "No"}, {"measurement": "IC50", "setting": "[3]", "value": 480, "unit": "nM"}]}, {"smiles": "CC(C)(C)c1cc(NC(=O)Nc2ccc(Br)cc2)n(-c2ccc(CO)cc2)n1", "note": "[Example 60]", "values": [{"measurement": "IC50", "setting": "[1]", "value": 2340, "unit": "nM"}]}, {"smiles": "CCOC(=O)CCc1ccc(-n2nc(C(C)(C)C)cc2NC(=O)Nc2cccc3ccccc23)cc1", "note": "[Example 296, ethyl 3-(4-(3-tert-butyl-5-(3-(naphthalen-1-yl)ureido)-1H-pyrazol-1-yl)phenyl)propanoate]", "values": [{"measurement": "IC50", "setting": "[1]", "value": 3490, "unit": "nM"}]}, {"smiles": "CC(C)(C)c1cc(NC(=O)Nc2cccc3ccccc23)n(-c2cccc(CCN3CCOCC3)c2)n1", "note": "[Example 300]", "values": [{"measurement": "IC50", "setting": "[1]", "value": 4780, "unit": "nM"}]}, {"smiles": "CC(C)c1cc(NC(=O)Nc2ccc(Cl)cc2)n(-c2cccc(CCC(=O)O)c2)n1", "note": "[Example 532]", "values": [{"measurement": "% Inhibition @ concentration", "setting": "[3]; at 10 uM", "value": 66, "unit": "% @ 10"}]}, {"smiles": "CC(C)c1cc(NC(=O)Nc2ccc(Cl)cc2)n(-c2cccc(CCC(=O)O)c2)n1", "note": "[Example 533, 3-(3-(5-(3-(4-chlorophenyl)ureido)-3-isopropyl-1H-pyrazol-1-yl)phenyl)propanoic acid]", "values": [{"measurement": "% Inhibition @ concentration", "setting": "[3]; at 10 uM", "value": 39, "unit": "% @ 10"}]}, {"smiles": "CC(C)(C)c1cc(NC(=O)Nc2ccc(Cl)cc2)n(-c2cccc(CO)c2)n1", "note": "[Example F]", "values": [{"measurement": "IC50", "setting": "[3]", "value": 437, "unit": "nM"}]}]}
